Measured values: the NIST ThermoML archive (doi:10.1016/j.jct.2012.05.015)
“And” between values parts separate entries of the source, which are not always exact repeats. Equal entries are not always repeated.

Settings: Liquid, Calculated from knudsen effusion weight loss

Nc1cc(N)nc(N)n1 [2,4,6-pyrimidinetriamine]
Settings | vapor or sublimation pressure
391.14 K | 7.42e-05 kPa and 7.31e-05 kPa and 7.14e-05 kPa
393.15 K | 9.48e-05 kPa and 8.89e-05 kPa and 8.51e-05 kPa
395.15 K | 0.00011 kPa and 0.000107 kPa and 0.0001 kPa
397.13 K | 0.000131 kPa and 0.000124 kPa and 0.000141 kPa
399.13 K | 0.000167 kPa and 0.000166 kPa and 0.000148 kPa
401.15 K | 0.0002 kPa and 0.000188 kPa and 0.000186 kPa
403.15 K | 0.000247 kPa and 0.000237 kPa and 0.000215 kPa
405.15 K | 0.000292 kPa and 0.000287 kPa and 0.000258 kPa
407.15 K | 0.000345 kPa and 0.000316 kPa and 0.000319 kPa
409.12 K | 0.000393 kPa and 0.000407 kPa and 0.000375 kPa
411.12 K | 0.000484 kPa and 0.000487 kPa and 0.000439 kPa
413.15 K | 0.000593 kPa and 0.00054 kPa and 0.000536 kPa

Nc1ccnc(N)n1 [2,4-pyrimidinediamine]
Settings | vapor or sublimation pressure
335.12 K | 7.78e-05 kPa and 7.75e-05 kPa and 7.72e-05 kPa
338.18 K | 0.000109 kPa and 0.00011 kPa and 0.000105 kPa
341.17 K | 0.00015 kPa and 0.000145 kPa and 0.000141 kPa
344.12 K | 0.000208 kPa and 0.000202 kPa and 0.000212 kPa
347.17 K | 0.000291 kPa and 0.000283 kPa and 0.000274 kPa
350.17 K | 0.000391 kPa and 0.000378 kPa
353.12 K | 0.000554 kPa and 0.000535 kPa and 0.000532 kPa
356.18 K | 0.00074 kPa and 0.000736 kPa and 0.000697 kPa
359.16 K | 0.000989 kPa and 0.000945 kPa and 0.000904 kPa
